Tests used:
[1] = system: Human immunodeficiency virus 1; assay: Antiviral activity against HIV1 RES056 harboring reverse transcriptase K103N/Y181C mutant infected in human MT4 cells assessed as inhibition of virus-induced cytopathicity by MTT assay; assay type: functional, organism-based; conditions: Human immunodeficiency virus 1, RES056, MT4
[2] = Selectivity index, ratio of CC50 for human MT4 cells to EC50 for HIV1 RES056 harboring reverse transcriptase K103N/Y181C mutant; assay type: toxicity, cell-based; conditions: read-out: Ratio CC50/EC50
[3] = system: Human immunodeficiency virus 2; assay: Antiviral activity against HIV2 ROD infected in human MT4 cells assessed as inhibition of virus-induced cytopathicity by MTT assay; assay type: functional, organism-based; conditions: Human immunodeficiency virus 2, ISOLATE ROD
[4] = Selectivity index, ratio of CC50 for human MT4 cells to EC50 for HIV1 3B; assay type: toxicity, cell-based; conditions: read-out: Ratio CC50/EC50
[5] = system: Human immunodeficiency virus 1; assay: Ratio of dideoxycytidine EC50 to compound EC50 for HIV1 3B; assay type: functional
[6] = Selectivity index, ratio of CC50 for human MT4 cells to EC50 for HIV2 ROD; assay type: toxicity, cell-based; conditions: read-out: Ratio CC50/EC50
[7] = Cytotoxicity against human MT4 cells by MTT assay; assay type: cell-based
[8] = system: Human immunodeficiency virus 1; assay: Ratio of nevirapine EC50 to compound EC50 for HIV1 3B; assay type: functional
[9] = system: Human immunodeficiency virus 1; assay: Ratio of delavirdine EC50 to compound EC50 for HIV1 3B; assay type: functional
[10] = system: Human immunodeficiency virus 1; assay: Antiviral activity against HIV1 3B infected in human MT4 cells assessed as inhibition of virus-induced cytopathicity by MTT assay; assay type: functional, organism-based; conditions: Human immunodeficiency virus 1, 3B
[11] = target: Human immunodeficiency virus type 1 reverse transcriptase (Human immunodeficiency virus 1, UniProt Q72547); assay: Inhibition of HIV1 reverse transcriptase assessed as biotin-dUTP incorporation into enzyme using […] as template primer by colorimetric analysis

| SMILES | EC50 [1] [µM] | selectivity ratio [2] | EC50 [3] [µM] | selectivity ratio [4] | Ratio EC50 [5] | selectivity ratio [6] | CC50 [7] [µM] | Ratio EC50 [8] | Ratio EC50 [9] | EC50 [10] [µM] | IC50 [11] [µM] |
| --- | --- | --- | --- | --- | --- | --- | --- | --- | --- | --- | --- |
| NS(=O)(=O)c1ccc(NC(=O)CSc2nncnc2-c2cccc3ccccc23)c(Br)c1 | 3.3 | 7 | > 23 | 1290 | 78 | < 1 | 23 | 11 | 2 | 0.018 | – |
| O=C(CSc1nncnc1-c1ccccc1Cl)Nc1cccnc1Cl | 23 | 7 | > 167 | 2240 | – | < 1 | 167 | – | – | 0.074 | – |
| O=C(CSc1nncnc1-c1ccccc1Cl)Nc1ccc(Cl)cc1Cl | > 51 | < 1 | > 51 | 190 | – | < 1 | 51 | – | – | 0.258 | – |
| Cc1ccccc1NC(=O)CSc1nncnc1-c1ccccc1Cl | > 142 | < 1 | > 142 | 465 | – | < 1 | 142 | – | – | 0.297 | – |
| COC(=O)c1ccc(NC(=O)CSc2nncnc2-c2ccccc2Cl)c(Br)c1 | > 59 | < 1 | > 59 | 311 | – | < 1 | 59 | – | – | 0.19 | – |
| CCOC(=O)c1ccc(NC(=O)CSc2nncnc2-c2ccccc2Cl)c(Br)c1 | > 69 | < 1 | > 69 | 302 | – | < 1 | 69 | – | – | 0.236 | – |
| O=C(CSc1nncnc1-c1ccccc1Cl)Nc1ccccn1 | > 123 | < 1 | > 123 | 51 | – | < 1 | 172 | – | – | 3.3 | – |
| COC(=O)c1sccc1NC(=O)CSc1nncnc1-c1ccccc1Cl | > 105 | < 1 | > 105 | 35 | – | < 1 | 105 | – | – | 2.9 | – |
| O=C(CSc1nncnc1-c1ccccc1Cl)N1CCc2ccccc2C1 | ≥ 43 | < 1 | > 38 | ≥ 52 | – | > 1 | ≥ 38 | – | – | 0.731 | – |
| O=C(CSc1nncnc1-c1cccc2ccccc12)Nc1ccccc1 | > 154 | < 1 | > 154 | 101 | – | < 1 | 154 | – | – | 1.53 | – |
| O=C(CSc1nncnc1-c1cccc2ccccc12)Nc1ccccc1Cl | > 63 | < 1 | > 63 | 470 | – | < 1 | 63 | – | – | 0.135 | – |
| O=C(CSc1nncnc1-c1cccc2ccccc12)Nc1ccccc1F | > 65 | < 1 | > 65 | 184 | – | < 1 | 65 | – | – | 0.359 | – |
| O=C(CSc1nncnc1-c1cccc2ccccc12)Nc1ccccc1Br | ≥ 43 | ≤ 2 | > 87 | 503 | – | < 1 | 87 | – | – | 0.173 | – |
| Cc1ccc(NC(=O)CSc2nncnc2-c2cccc3ccccc23)c(Br)c1 | 46 | 4 | > 166 | 852 | – | < 1 | 166 | – | – | 0.195 | – |
| Cc1ccc(NC(=O)CSc2nncnc2-c2cccc3ccccc23)c([N+](=O)[O-])c1 | 5.2 | 28 | > 147 | 3170 | – | < 1 | 147 | – | – | 0.046 | – |
| O=C(CSc1nncnc1-c1cccc2ccccc12)Nc1ccccc1[N+](=O)[O-] | 5.6 | 25 | > 142 | 3260 | – | < 1 | 142 | – | – | 0.043 | – |
| CC(=O)c1ccc(NC(=O)CSc2nncnc2-c2cccc3ccccc23)c(Br)c1 | 4.3 | 31 | > 133 | 2680 | – | < 1 | 133 | – | – | 0.051 | – |
| O=C(CSc1nncnc1-c1ccccc1Cl)Nc1ccccc1 | > 127 | < 1 | > 127 | 296 | – | < 1 | 127 | – | – | 0.42 | – |
| O=C(CSc1nncnc1-c1ccccc1Cl)Nc1ccccc1F | > 98 | < 1 | > 98 | 471 | – | < 1 | 98 | – | – | 0.21 | – |
| O=C(CSc1nncnc1-c1ccccc1Cl)Nc1ccccc1Br | ≥ 55 | ≤ 1 | > 73 | 792 | – | < 1 | 73 | – | – | 0.092 | – |
| Cc1ccc(NC(=O)CSc2nncnc2-c2ccccc2Cl)c(Br)c1 | ≥ 42 | ≤ 1 | > 45 | 253 | – | < 1 | 45 | – | – | 0.178 | – |
| Cc1ccc(NC(=O)CSc2nncnc2-c2ccccc2Cl)c([N+](=O)[O-])c1 | ≥ 22 | ≤ 1 | > 158 | 3330 | – | < 1 | 158 | – | – | 0.048 | 18 |
| O=C(CSc1nncnc1-c1ccccc1Cl)Nc1ccccc1[N+](=O)[O-] | ≥ 11 | ≤ 6 | > 63 | 2160 | – | < 1 | 63 | – | – | 0.023 | 6.5 |
| CC(=O)c1ccc(NC(=O)CSc2nncnc2-c2ccccc2Cl)c(Br)c1 | > 34 | < 1 | > 35 | 404 | – | < 1 | 34 | – | – | 0.086 | – |

Source: ChEMBL document CHEMBL2203176, “Structure-based bioisosterism design, synthesis and biological evaluation of novel 1,2,4-triazin-6-ylthioacetamides as potent HIV-1 NNRTIs” (Bioorg Med Chem Lett, 2012)
